2 compounds from US12059403B2, “Use of SWELL1 inhibitors and modulators to treat type 2 diabetes and obesity” (UNIVERSITY OF IOWA RESEARCH FOUNDATION, priority 2016, dated 2024) can be followed below.

Numbering of substitutions follows the chain as printed.

For experiment [1], the system named is mice raised on a high-fat diet. Nature of the experiment: Glucose tolerance in mice raised on a high-fat diet. The class given is in vivo.
Experiment [2] addresses T1, volume-regulated anion current (VRAC) (Mus musculus, UniProt Q80WG5).
T1 construct: present in the murine 3T3-F442A and human adipocyte cell lines (NPAD) upon hypotonic swelling; endogenous in cells; host or cells: 3T3-F442A adipocytes
T1 sequence (Q80WG5 1-810): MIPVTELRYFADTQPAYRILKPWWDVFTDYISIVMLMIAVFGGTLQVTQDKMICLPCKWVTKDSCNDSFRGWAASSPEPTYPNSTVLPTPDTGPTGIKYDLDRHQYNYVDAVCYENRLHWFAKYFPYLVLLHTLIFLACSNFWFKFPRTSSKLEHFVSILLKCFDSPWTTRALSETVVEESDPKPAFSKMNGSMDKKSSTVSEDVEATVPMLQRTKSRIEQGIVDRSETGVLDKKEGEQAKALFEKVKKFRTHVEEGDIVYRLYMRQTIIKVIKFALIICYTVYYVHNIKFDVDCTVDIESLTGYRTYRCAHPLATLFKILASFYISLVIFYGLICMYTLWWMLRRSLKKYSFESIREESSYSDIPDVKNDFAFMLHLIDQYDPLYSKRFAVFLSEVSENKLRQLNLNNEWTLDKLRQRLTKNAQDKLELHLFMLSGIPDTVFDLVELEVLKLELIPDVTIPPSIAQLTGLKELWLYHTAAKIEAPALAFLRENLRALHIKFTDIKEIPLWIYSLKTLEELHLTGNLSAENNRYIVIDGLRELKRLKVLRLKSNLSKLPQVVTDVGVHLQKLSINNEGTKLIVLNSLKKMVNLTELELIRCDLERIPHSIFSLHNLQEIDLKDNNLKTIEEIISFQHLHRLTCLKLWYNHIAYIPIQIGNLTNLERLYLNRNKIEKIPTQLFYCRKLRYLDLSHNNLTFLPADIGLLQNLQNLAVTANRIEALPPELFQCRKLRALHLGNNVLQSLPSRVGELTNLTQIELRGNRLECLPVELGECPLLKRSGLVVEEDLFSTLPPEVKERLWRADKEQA
Nature of the experiment: Patch-clamp of swell-activated current in 3T3-F442A adipocytes upon hypotonic swelling. In kind it is cell-based. Particulars: murine 3T3-F442A adipocytes.

Experiment [3] concerns the target T1, volume-regulated anion current (VRAC). Briefly: Patch-clamp of swell-activated current in mature murine iWAT adipocytes swelled by positive pressure. In kind it is cell-based. To be noted: positive pressure swelling, whole-cell. On the procedure: To identify a putative swell-activated ionic current in adipocytes, patch-clamp recordings were performed on mature murine adipocytes freshly isolated from inguinal white adipose tissue (iWAT). Ionic currents were measured in voltage-clamp mode while simultaneously swelling the adipocyte by applying positive pressure (˜3-5 mmHg, whole-cell configuration) via the patch-pipette. After a few minutes, activation of a large swell-activated current was observed. This current is outward rectifying, characterized by larger outward current at positive voltages compared to inward currents at negative voltages during sequential voltage ramps or voltage steps, with the current amplitude proportional to the extent of adipocyte swelling. This current reverses direction at −11.7±2.5 mV, which is near the reversal potential of chloride under these conditions (−11.5 mV, junction potential corrected). […] Finally, this swell-activated adipocyte current is blocked by 4-[(2-Butyl-6,7-dichloro-2-cyclopentyl-2,3-dihydro-1-oxo-1H-inden-5-yl)oxy]butanoic acid (DCPIB), a selective blocker of the volume-regulated anion current (VRAC) or volume-sensitive outwardly rectifying chloride current (VSOR).
A general note: The patch-clamp technique gives a direct electrical read-out from membranes.

Another experiment deals with SWELL1. Nature of the experiment: SWELL1 protein expression in cultured adipocytes. The class given is cell-based.
The target of experiment [4] is T2, β-cell VRAC (Mus musculus, UniProt Q80WG5).
T2 construct: endogenous in cells; host or cells: MIN6 mouse insulinoma cells
T2 sequence (Q80WG5 1-810): T1 sequence (Q80WG5 1-810)
Briefly: Perforated-patch clamp of glucose-activated VRAC in primary mouse β-cells. To be noted: 35-37° C. The class given is cell-based. The procedure:
(§1) Having established that SWELL1 is required for this previously enigmatic depolarizing swell-activated Cl^− current in MIN6 cells, and in both mouse and human primary β-cells, whether physiologic glucose-mediated β-cell swelling is sufficient to activate SWELL1-mediated VRAC was investigated. First, β-cell size was measured by light microscopy in WT and SWELL1-deficient primary murine and human β-cells in response to glucose-stimulated swelling (at 35-37° C.). WT murine β-cells swell 6.8±1.6% in cross-sectional area upon perfusion of 16.7 mM glucose (from 1 mM basal glucose) and reach a maximum size at 12 minutes post glucose-stimulation, followed by a reduction in β-cell size, consistent with regulatory volume decrease (RVD). […] WT human β-cells show a similar trend, swelling 8.6±3.5%, followed by RVD. […] Next, the perforated-patch clamp technique was applied to primary β-cells at 35-37° C. in order to measure currents under the same physiological conditions that induce glucose-mediated β-cell swelling. β-cell VRAC activates in response to physiological increases in glucose in MIN6 cells and in both mouse and human β-cells, and is blocked by the selective VRAC inhibitor, DCPIB. […]

The target in experiment [5] is T3, volume-regulated anion current (VRAC) (Homo sapiens, UniProt Q8IWT6).
T3 construct: present in the murine 3T3-F442A and human adipocyte cell lines (NPAD) upon hypotonic swelling; endogenous in cells; host or cells: human adipocyte cell line (NPAD)
T3 sequence (Q8IWT6 1-810): T1 sequence (Q80WG5 1-810) with S75P, S76G, V86I, A276I, V591A, V715I, A722T, S792N
Briefly: Patch-clamp of swell-activated current in human adipocyte cell line (NPAD) upon hypotonic swelling. The class given is cell-based.

Experiment [6] deals with T4, β-cell VRAC (Homo sapiens, UniProt Q8IWT6).
T4 construct: from tissue; host or cells: primary β-cells from human pancreatic islets
T4 sequence (Q8IWT6 1-810): T1 sequence (Q80WG5 1-810) with S75P, S76G, V86I, A276I, V591A, V715I, A722T, S792N
Briefly: Perforated-patch clamp of glucose-activated VRAC in primary human β-cells. The class given is cell-based. To be noted: 35-37° C. The procedure: as §1

Experiment [7] has as its target T2, β-cell VRAC. Briefly: Perforated-patch clamp of glucose-activated VRAC in MIN6 cells. In kind it is cell-based. Particulars: 35-37° C. The procedure: as §1
Experiment [8] has as its system WT primary murine β-cells. Nature of the experiment: Glucose-stimulated Ca2+ signaling (GCaMP6s imaging) in WT primary murine β-cells. In kind it is cell-based. Particulars: 10 μM. The text has this: SWELL1-dependent Ca^2+ signaling was then examined in primary mouse and human β-cells. Adenoviruses expressing the genetically encoded Ca^2+-sensor GCaMP6s under control of the rat insulin promoter 1 (RIP1), either alone (Ad-RIP1-GCaMP6s), or in combination with Cre-recombinase (Ad-RIP1-Cre-P2A-GCaMP6s), were generated. This approach provides a robust β-cell restricted fluorescent Ca^2+ sensor while simultaneously allowing for β-cell targeted Cre-mediated SWELL1 deletion in cultured SWELL1^fl/fl islets isolated from SWELL1^fl/fl mice. […] A similar approach was used in human islets, whereby islets were co-transduced with Ad-RIP1-GCaMP6s and either Ad-U6-shSWELL1-mCherry or Ad-U6-shSCR-mCherry. Upon islet dissociation, only double-labelled GCaMP6s+/mCherry+ primary human β-cells were imaged. As with mouse primary β-cells, robust glucose-stimulated Ca^2+ transients in Ad-shSCR treated human primary β-cells were observe, and this is markedly abograted upon Ad-shSWELL1-mediated SWELL1 knock-down. […] In pancreatic β-cells, physiological intracellular Cl^− concentration is maintained at 34-36 mM by NKCC1 transporters to generate a depolarizing Cl^− current upon activation of a Cl^− conductance, since ECl−=˜−35 mV. […]

In another experiment the test system is WT MIN6 cells. Nature of the experiment: Glucose-stimulated intracellular Ca2+ in WT MIN6 cells. The class given is cell-based, mouse. Particulars: 10 μM.

Experimental for WT MIN6 cells: To determine whether SWELL1-mediated depolarizing Cl^− current is required to depolarize the β-cell membrane potential to the activation threshold of voltage-gated Ca^2+ channels (VGCC) essential for insulin granule fusion, glucose-stimulated intracellular Ca^2+ was measured in WT and SWELL1-deficient MIN6 β-cells, primary mouse and human β-cells.

In the case of `CCCCC1(C2CCCC2)Cc2cc(OCCCC(=O)O)c(Cl)c(Cl)c2C1=O` (stereo not shown) [DCPIB, 4-[(2-Butyl-6,7-dichloro-2-cyclopentyl-2,3-dihydro-1-oxo-1H-inden-5-yl)oxy]butanoic acid], in experiment [1], the “glucose tolerance associated with obesity” value is listed as “normalized”. Also, the swell-activated current result in [2] and in [5] was “fully inhibited” in each case. Also, the swell-activated adipocyte current entry in [3] is “blocked”. The SWELL1 protein expression entry with SWELL1 is listed as “induced a compensatory increase”. Besides, the “β-cell VRAC activated by physiological increases in glucose” value on β-cell VRAC [4], at β-cell VRAC [6] and at β-cell VRAC [7] was “blocked” in each case.

Consider `CCCCNc1cc(C(=O)O)cc(S(N)(=O)=O)c1Oc1ccccc1` [bumetanide], for which the “glucose-stimulated Ca2+ signaling” value (in [8]; with WT MIN6 cells) was “fully inhibits” throughout.
